19 molecules from US12486228B2, “N-substituted indoles and use as allosteric modulators of cannabinoid receptors” (priority 2018, dated 2025) can be followed below.

What all share (experiment): cell-based
The target of test [1] is T1, hCB1 (Homo sapiens, UniProt P21554). The arrangement: host or cells: CHO-K1 PathHunter. As for the experimental part:
PathHunter CB1 β-Arrestin Assay: Chinese hamster ovary K1 (CHO-K1)-PathHunter hCB1 β-arrestin cells (DiscoveRx, Fremont, CA) were seeded at 5000 cells/well in 384-well plates 24 h before use and incubated at 37° C., 5% CO2. Compounds were dissolved in dimethyl sulfoxide (DMSO) and diluted in optimized cell culture (OCC) media. Agonist EC80 was determined directly from an agonist dose—response curve (data not shown). […] Five microliters of allosteric modulator or vehicle solution was added to each well at the appropriate concentrations and incubated for 30 min. Five microliters of agonist was then added to each well followed by a 90 min incubation. Fifteen microliters of detection reagent was then added followed by further 60 min incubation at room temperature. Chemiluminescence was measured on a standard luminescence plate reader as relative light units (RLU). Basal RLU was defined as zero. […] Data were analyzed using the fourparameter variable-slope and allosteric EC50 shift nonlinear regression equations in Prism 5.0 (GraphPad, San Diego, CA).

Test [2] has as its target T1, hCB1. Details: host or cells: CHO-K1. As to the method: HitHunter cAMP assay: Inhibition of forskolin-stimulated cAMP was determined using the DiscoveRx HitHunter assay in hCB1R CHO-K1 cells. Cells (20,000 cells/well in low-volume 96 well plates) were incubated overnight in Opti-MEM (Invitrogen) containing 1% FBS at 37° C. and 5% CO2. Following this, Opti-MEM media was removed and replaced with cell assay buffer (DiscoveRx) and cells were co-treated at 37° C. with 10 μM forskolin and hCB1R ligands (0.10 nM-10 μM) for 30 min or 90 min cAMP antibody solution and cAMP working detection solutions were then added to cells according to the manufacturer's directions (DiscoveRx®) and cells were incubated for 60 min at room temperature. cAMP solution A was added according to the manufacturer's directions (DiscoveRx®) and cells were incubated for an additional 60 min at room temperature before chemiluminescence was measured on a Cytation 5 plate reader (top read, gain 200, integration time 10,000 ms).

Test [3] has as its target T2, CB2 (Homo sapiens, UniProt P34972). Conditions: for EC50 / Emax: CB2, agonist mode; for EC50: read-out: CB2 Agonist mode β-Arrestin EC50; for Emax: read-out: CB2 Agonist mode β-Arrestin Emax.
The target of test [4] is T2, CB2. Conditions: for EC50 / Emax: CB2, agonist mode; for EC50: read-out: CB2 Agonist mode cAMP EC50; for Emax: read-out: CB2 Agonist mode cAMP Emax.
Setting [5] is: CB1, PAM mode, read-out: CB1 PAM mode β-Arrestin EC50.
Where [6] appears, read: CB1, agonist mode, read-out: CB1 Agonist mode β-Arrestin EC50.
Where [7] appears, read: read-out: CB1 Agonist mode β-Arrestin Emax.
The mark [8] stands for this setting: read-out: CB1 PAM mode β-Arrestin Emax.
The mark [9] stands for this setting: CB1, PAM mode, read-out: CB1 PAM mode cAMP EC50.
[10] abbreviates: CB1, agonist mode, read-out: CB1 Agonist mode cAMP EC50.
Where [11] appears, read: read-out: CB1 Agonist mode cAMP Emax, CB1, agonist mode.
Setting [12] is: read-out: CB1 PAM mode cAMP Emax, CB1, PAM mode.

Where two headings read alike, the source gives them in different places.

T1 sequence (P21554 whole entry): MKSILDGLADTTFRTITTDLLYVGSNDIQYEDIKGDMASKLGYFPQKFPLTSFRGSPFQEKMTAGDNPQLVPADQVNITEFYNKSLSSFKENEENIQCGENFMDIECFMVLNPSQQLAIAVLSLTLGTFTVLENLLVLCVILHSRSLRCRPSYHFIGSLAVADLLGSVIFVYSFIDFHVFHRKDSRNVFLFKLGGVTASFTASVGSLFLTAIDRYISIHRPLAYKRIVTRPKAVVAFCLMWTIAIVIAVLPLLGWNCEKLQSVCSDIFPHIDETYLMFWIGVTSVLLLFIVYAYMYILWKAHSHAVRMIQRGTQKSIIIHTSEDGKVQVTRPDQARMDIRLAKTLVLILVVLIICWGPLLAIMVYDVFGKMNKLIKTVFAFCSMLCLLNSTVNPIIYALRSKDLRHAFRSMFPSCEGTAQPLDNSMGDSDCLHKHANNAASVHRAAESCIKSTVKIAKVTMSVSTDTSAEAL
T2 sequence (P34972 whole entry, species assumed): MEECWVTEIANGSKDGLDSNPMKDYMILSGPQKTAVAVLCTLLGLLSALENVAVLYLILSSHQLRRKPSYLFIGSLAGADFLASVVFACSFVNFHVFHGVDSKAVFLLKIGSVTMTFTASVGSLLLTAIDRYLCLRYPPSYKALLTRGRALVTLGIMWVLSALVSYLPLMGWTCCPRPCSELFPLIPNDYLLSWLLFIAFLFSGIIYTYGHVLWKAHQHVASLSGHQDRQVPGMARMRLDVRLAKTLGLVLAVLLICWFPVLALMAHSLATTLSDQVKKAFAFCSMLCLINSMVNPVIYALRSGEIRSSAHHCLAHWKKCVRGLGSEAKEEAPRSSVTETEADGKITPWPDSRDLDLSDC

For orientation: EC50 means the concentration needed to bring the measured effect to its halfway point. Usually Emax stands for the greatest response seen or fitted, relative to the assay's reference. Regarding `O=C(O)CC=C(c1ccccc1)c1cn(-c2ccccc2)c2ccccc12` (mixture of isomers) [Compound 16, (E and Z)-4-Phenyl-4-(1-phenyl-1H-indol-3-yl)but-3-enoic acid], the half-maximal effective concentration (EC50) is over 10 µM on hCB1 [1] (setting [5]); over 10 µM on hCB1 [1] (setting [6]); 0.934 µM on hCB1 [2] (setting [9]); 0.689 µM on hCB1 [2] (setting [10]); over 10 µM at CB2 [3]; 0.359 µM at CB2 [4]. Besides, the Emax turned out to be 0% on hCB1 [1] (setting [7]); 0% at hCB1 [1] (setting [8]); 94% on hCB1 [2] (setting [11]); 104% on hCB1 [2] (setting [12]); 0% on CB2 [3]; 80% at CB2 [4].
Regarding `O=C(c1ccccc1)c1cn(-c2ccccc2)c2ccccc12` [Compound 40, Phenyl(1-phenyl-1H-indol-3-yl)methanone], the EC50 on hCB1 [1] was over 10 µM; at hCB1 [2] (CB1 PAM mode cAMP EC50, CB1, PAM mode), over 10 µM. Besides, the maximal response (Emax) is 0.273% at hCB1 [1] (setting [8]) and 11.7% on hCB1 [2] (setting [12]).
`Cc1ccc2c(C(CCC(=O)O)c3ccccc3)cn(-c3ccccc3)c2c1` (stereo not shown) [Compound 17, 4-(6-Methyl-1-phenyl-1H-indol-3-yl)-4-phenylbutanoic acid]: the EC50 is over 10 µM on hCB1 [1] (setting [5]); over 10 µM on hCB1 [1] (setting [6]); 1.44 µM on hCB1 [2] (setting [9]); 1.25 µM on hCB1 [2] (setting [10]); over 10 µM at CB2 [3]; 1 µM at CB2 [4]. The Emax on hCB1 [1] (setting [7]) turned out to be 0%; at hCB1 [1] (setting [8]), 0%; at hCB1 [2] (setting [11]) it was 73%; at hCB1 [2] (setting [12]) it was 93%; at CB2 [3] it was 0%; on CB2 [4] it was 74%.
Regarding `OCCC(c1ccccc1)c1cn(-c2ccccc2)c2ccccc12` (stereo not shown) [Compound 32, 3-Phenyl-3-(1-phenyl-1H-indol-3-yl)propan-1-ol], the EC50 on hCB1 [1] (setting [5]) and at hCB1 [2] (setting [9]) was over 10 µM throughout. The Emax came out at 0% on hCB1 [1] (setting [8]) and 27.1% on hCB1 [2] (setting [12]).
Consider `O=C(O)C(C(=O)O)C(c1ccccc1)c1cn(-c2ccccc2)c2ccccc12` (stereo not shown) [Compound 9, 2-(Phenyl(1-phenyl-1H-indol-3-yl)methyl)malonic acid], for which the EC50 on hCB1 [1] (setting [5]) was over 10 µM; at hCB1 [2] (setting [9]), 1.28 µM. The figures for the Emax at hCB1 [1] (setting [8]) and at hCB1 [2] (setting [12]) were 0% and 158%, respectively.
In the case of `O=C(O)/C=C\C(c1ccccc1)c1cn(-c2ccccc2)c2ccccc12` (stereo not shown) [Compound 15, (Z)-4-phenyl-4-(1-phenyl-1H-indol-3-yl)but-2-enoic acid], the EC50 at hCB1 [1] (setting [5]) is over 10 µM; on hCB1 [1] (setting [6]), over 10 µM; on hCB1 [2] (setting [9]), 0.639 µM; at hCB1 [2] (setting [10]), 0.506 µM; at CB2 [3], over 10 µM; on CB2 [4], 1.05 µM. For the same molecule, the Emax on hCB1 [1] (setting [7]) stood at 0%; on hCB1 [1] (setting [8]), 0%; on hCB1 [2] (setting [11]), 86%; at hCB1 [2] (setting [12]), 84%; on CB2 [3] it was 0%; at CB2 [4] it was 81%.
Consider `CCOC(=O)CCC(c1ccccc1)c1cn(-c2ccccc2)c2ccccc12` (stereo not shown) [Compound 13, Ethyl 4-phenyl-4-(1-phenyl-1H-indol-3-yl)butanoate], for which the EC50 on hCB1 [1] (setting [5]) and on hCB1 [2] (setting [9]) was over 10 µM each time. The Emax on hCB1 [1] (setting [8]) and on hCB1 [2] (setting [12]) was 0% throughout.
As for `c1ccc(C(Cc2nnn[nH]2)c2cn(-c3ccccc3)c3ccccc23)cc1` (stereo not shown) [Compound 39, 1-Phenyl-3-(1-phenyl-2-(1H-tetrazol-5-yl)ethyl)-1H-indole], the EC50 at hCB1 [1] (setting [5]) is over 10 µM; at hCB1 [2] (setting [9]), 0.423 µM. Moreover, the results for the Emax on hCB1 [1] (setting [8]) and on hCB1 [2] (setting [12]) were 0% and 94%, respectively.
For the molecule `O=C(O)CC(c1ccccc1)c1cn(-c2ccccc2)c2ccccc12` (stereo not shown) [Compound 8, 3-Phenyl-3-(1-phenyl-1H-indol-3-yl)propanoic acid], the EC50 is over 10 µM at hCB1 [1] (setting [5]) and 0.509 µM at hCB1 [2] (setting [9]). For the same molecule, the Emax turned out to be 0% on hCB1 [1] (setting [8]) and 144% on hCB1 [2] (setting [12]).
With `O=[N+]([O-])CC(c1ccccc1)c1c(-c2ccccc2)[nH]c2ccccc12` (stereo not shown) [GAT211, reference compound], the “CB1 PAM mode β-Arrestin Emax” value on hCB1 [1] (CB1, PAM mode) was “(59) %”. Further, on hCB1 [1] (CB1, agonist mode), the “CB1 Agonist mode β-Arrestin Emax” value was “(14) %”. The “CB1 PAM mode cAMP Emax” value at hCB1 [2] (CB1, PAM mode) is on record as “(73) %”. Besides, at hCB1 [2] (CB1, agonist mode), the “CB1 Agonist mode cAMP Emax” value is on record as “(94) %”. On CB2 [3], the “CB2 Agonist mode β-Arrestin Emax” value turned out to be 0% and the EC50 was over 10 µM. Also, on CB2 [4], the “CB2 Agonist mode cAMP Emax” value is “(0) %” and the EC50 is over 10 µM.
For the molecule `OC(c1ccccc1)c1cn(-c2ccccc2)c2ccccc12` (stereo not shown) [Compound 30, Phenyl(1-phenyl-1H-indol-3-yl)methanol], the EC50 at hCB1 [1] (setting [5]) and at hCB1 [2] (setting [9]) was over 10 µM each time. Besides, the Emax at hCB1 [1] (setting [8]) and at hCB1 [2] (setting [12]) was 0% each time.
Take `OCC(c1ccccc1)c1cn(-c2ccccc2)c2ccccc12` (stereo not shown) [Compound 31, 2-Phenyl-2-(1-phenyl-1H-indol-3-yl)ethan-1-ol]: the EC50 at hCB1 [1] (setting [5]) and at hCB1 [2] (setting [9]) was over 10 µM throughout. Also, the Emax at hCB1 [1] (setting [8]) turned out to be 0%; on hCB1 [2] (setting [12]), 1.31%.
In the case of `O=C(O)C(c1ccccc1)c1cn(-c2ccccc2)c2ccccc12` (stereo not shown) [Compound 7, 2-Phenyl-2-(1-phenyl-1H-indol-3-yl)acetic acid], the values for the EC50 on hCB1 [1] (setting [5]) and at hCB1 [2] (setting [9]) were over 10 µM and 4.18 µM, respectively. Moreover, the Emax at hCB1 [1] (setting [8]) worked out at 0%; on hCB1 [2] (setting [12]), 78.9%.
For `NC(=O)CC(c1ccccc1)c1cn(-c2ccccc2)c2ccccc12` (stereo not shown) [Compound 38, 3-Phenyl-3-(1-phenyl-1H-indol-3-yl)propanamide], in that order: over 10 µM, over 10 µM, 0% and 27.1%.
As for `OCCCC(c1ccccc1)c1cn(-c2ccccc2)c2ccccc12` (stereo not shown) [Compound 34, 4-Phenyl-4-(1-phenyl-1H-indol-3-yl)butan-1-ol], the EC50 at hCB1 [1] (setting [5]) and on hCB1 [2] (setting [9]) was over 10 µM throughout. Further, the Emax was 5% at hCB1 [1] (setting [8]) and 0% on hCB1 [2] (setting [12]).
For `OCC(c1ccccc1)c1cn(-c2ccccc2)c2ccc(Cl)cc12` (stereo not shown) [Compound 35, 2-(5-Chloro-1-phenyl-1H-indol-3-yl)-2-phenylethan-1-ol], the EC50 at hCB1 [1] (setting [5]) and at hCB1 [2] (setting [9]) was over 10 µM each time. The Emax was found to be 0% at hCB1 [1] (setting [8]) and 2.81% on hCB1 [2] (setting [12]).
Turning to `CC(CC(c1ccccc1)c1cn(-c2ccccc2)c2ccccc12)C(=O)O` (racemic) [Compound 11, (±)-2-Methyl-4-phenyl-4-(1-phenyl-1H-indol-3-yl)butanoic acid], the EC50 was over 10 µM on hCB1 [1] (setting [5]), over 10 µM at hCB1 [1] (setting [6]), 1.89 µM on hCB1 [2] (setting [9]) and 1.26 µM at hCB1 [2] (setting [10]). The Emax came out at 0% at hCB1 [1] (setting [7]), 0% at hCB1 [1] (setting [8]), 62% at hCB1 [2] (setting [11]) and 100% at hCB1 [2] (setting [12]).
Consider `CCOC(=O)C(C(=O)O)C(c1ccccc1)c1cn(-c2ccccc2)c2ccccc12` (stereo not shown) [Compound 10, 3-Ethoxy-3-oxo-2-(phenyl(1-phenyl-1H-indol-3-yl)methyl)propanoic acid], for which the EC50 at hCB1 [1] (setting [5]) and at hCB1 [2] (setting [9]) was over 10 µM throughout. In addition, the Emax on hCB1 [1] (setting [8]) was found to be 4.59%; on hCB1 [2] (setting [12]), 6.98%.
Consider `CC(CC(c1ccccc1)c1cn(-c2ccccc2)c2ccccc12)C(=O)O` (racemic) [Compound 12, (±)-2-Methyl-4-phenyl-4-(1-phenyl-1H-indol-3-yl)butanoic acid], for which the “CB1 PAM mode β-Arrestin Emax” value on hCB1 [1] (CB1, PAM mode) is “(0) %”. Moreover, the EC50 was over 10 µM at hCB1 [1] (setting [5]), over 10 µM at hCB1 [1] (setting [6]), 0.704 µM on hCB1 [2] (setting [9]) and 1.06 µM on hCB1 [2] (setting [10]). Further, at hCB1 [1] (CB1, agonist mode), the “CB1 Agonist mode β-Arrestin Emax” value is reported as “(0) %”. Also, the “CB1 PAM mode cAMP Emax” value at hCB1 [2] (CB1, PAM mode) is “(101) %”. Further, the “CB1 Agonist mode cAMP Emax” value at hCB1 [2] (CB1, agonist mode) is “(60) %”.
